Measurements published in USRE48335E1, “Polymyxin derivatives as antimicrobial compounds” (priority 2014, dated 2020).
Values after ≈ are worked out from the molar mass of the structure shown. Read-outs that look alike come from different tables or passages of the source. Positions of bridges follow the written chain, without caps; N, C: chain ends. Non-standard residues stand in square brackets, D forms with d. Residues, ends and D or L forms follow the SMILES beside them. *: point of attachment. Benzoyl(4-(4-Cl-Ph)) = O=C(c1ccc(-c2ccc(Cl)cc2)cc1)*; Benzoyl(3-CF3) = O=C(c1cccc(C(F)(F)F)c1)*; Benzoyl(4-Cl) = O=C(c1ccc(Cl)cc1)*; Butanoyl(4-Ph) = O=C(CCCc1ccccc1)*; Nonanoyl = CCCCCCCCC(=O)*; Octanoyl = CCCCCCCC(=O)*; Dab = NCC[C@H](N)C(=O)O; Abu = CC[C@H](N)C(=O)O; Dap = NC[C@H](N)C(=O)O

Legend:
A. baumannii ATCC 19606 = assay: In vivo efficacy in mouse blood infection model (neutropenic Swiss mice); settings: compound, free base 4 mg/kg intravenously 2 h after inoculation, blood at 4 h
Method in brief: (§1)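 Activity expressed as Δlog10 CFU/mL blood, treated minus saline control, 4 h after a single 4 mg/kg (free base) i.v. dose given 2 h post-infection. Bloodstream infection from i.v. early log-phase inoculum in Swiss mice made neutropenic by i.p. cyclophosphamide on days −4 (150 mg/kg) and −1 (100 mg/kg).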

Enterobacter cloacae = test system: Enterobacter cloacae
Method in brief: (§2)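 Lipopeptide TFA salts are serially diluted in cation-adjusted Mueller-Hinton broth and inoculated per the CLSI M100-S18 broth microdilution method. The MIC is then recorded, with polymyxin B sulphate included as a control.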

Acinetobacter baumannii = test system: Acinetobacter baumannii
Method in brief: as §2

Klebsiella pneumoniae = test system: Klebsiella pneumoniae
Method in brief: as §2

Pseudomonas aeruginosa = test system: Pseudomonas aeruginosa
Method in brief: as §2

P. aeruginosa ATCC 27853 = assay: In vivo efficacy in mouse blood infection model (neutropenic Swiss mice); settings: compound, free base 4 mg/kg intravenously 2 h after inoculation, blood at 4 h
Method in brief: as §1

Compound	Δ log (Treated-Control at 4 h) (A. baumannii ATCC 19606) [log10 CFU/mL]	Minimum inhibitory concentration, Ec FADDI-EC001 (Enterobacter cloacae) [µg/mL]	Minimum inhibitory concentration, Ec FADDI-EC003 (Enterobacter cloacae) [µg/mL]	Minimum inhibitory concentration, Ec FADDI-EC006 (Enterobacter cloacae) [µg/mL]	MIC (Acinetobacter baumannii) [µg/mL]	Minimum inhibitory concentration, Ab A ATCC 17978 (Acinetobacter baumannii) [µg/mL]	Minimum inhibitory concentration, Ab ATCC 19606 (Acinetobacter baumannii) [µg/mL]	Minimum inhibitory concentration, Ab FADDI-AB034 (Acinetobacter baumannii) [µg/mL]	MIC (Klebsiella pneumoniae) [µg/mL]	MIC (Pseudomonas aeruginosa) [µg/mL]	Minimum inhibitory concentration, Pa ATCC 27853 (Pseudomonas aeruginosa) [µg/mL]	Minimum inhibitory concentration, Pa FADDI-PA022 (Pseudomonas aeruginosa) [µg/mL]	Minimum inhibitory concentration, Pa FADDI-PA025 (Pseudomonas aeruginosa) [µg/mL]	Δ log (Treated-Control at 4 h) (P. aeruginosa ATCC 27853) [log10 CFU/mL]	further results
CC[C@@H]1NC(=O)[C@@H](CC(C)C)NC(=O)[C@H](CCN)NC(=O)[C@@H](NC(=O)[C@@H](CO)NC(=O)[C@@H](NC(=O)[C@H](CCN)NC(=O)c2cccc(C(F)(F)F)c2)[C@@H](C)O)CCNC(=O)[C@H]([C@@H](C)O)NC(=O)[C@H](CCN)NC(=O)[C@H](CCN)NC1=O [Compound 18] ({Benzoyl(3-CF3)}-[Dab]T[dS][Dab][Dab][dL][Abu][Dab][Dab]T; lactam 4-C)	−1.57	1 (≈ 0.862 µM)	0.5 (≈ 0.431 µM)	0.5 (≈ 0.431 µM)	0.5 (≈ 0.431 µM)	0.5 (≈ 0.431 µM)	0.5 (≈ 0.431 µM)	0.5 (≈ 0.431 µM)	0.25 (≈ 0.215 µM)	8 (≈ 6.89 µM)	8 (≈ 6.89 µM)	8 (≈ 6.89 µM)	2 (≈ 1.72 µM)		
CC(C)C[C@H]1NC(=O)[C@H](CCN)NC(=O)[C@@H](NC(=O)[C@@H](CO)NC(=O)[C@@H](NC(=O)[C@H](CCN)NC(=O)c2cccc(C(F)(F)F)c2)[C@@H](C)O)CCNC(=O)[C@H]([C@@H](C)O)NC(=O)[C@H](CCN)NC(=O)[C@H](CCN)NC(=O)[C@H]([C@@H](C)O)NC1=O [Compound 19] ({Benzoyl(3-CF3)}-[Dab]T[dS][Dab][Dab][dL]T[Dab][Dab]T; lactam 4-C)	−1.58	1 (≈ 0.85 µM)	0.5 (≈ 0.425 µM)	0.5 (≈ 0.425 µM)	2 (≈ 1.7 µM)	0.5 (≈ 0.425 µM)	2 (≈ 1.7 µM)	4 (≈ 3.4 µM)	0.5 (≈ 0.425 µM)	32 (≈ 27.2 µM)	32 (≈ 27.2 µM)	16 (≈ 13.6 µM)	>32		
CCCCCCCC(=O)N[C@@H](CCN)C(=O)N[C@H](C(=O)N[C@@H](CCN)C(=O)N[C@H]1CCNC(=O)[C@H]([C@@H](C)O)NC(=O)[C@H](CCN)NC(=O)[C@H](CCN)NC(=O)[C@H](C)NC(=O)[C@@H](CC(C)C)NC(=O)[C@H](CCN)NC1=O)[C@@H](C)O [Compound 21] (Octanoyl-[Dab]T[Dab][Dab][Dab][dL]A[Dab][Dab]T; lactam 4-C)	−2.43	0.125 (≈ 0.112 µM)	0.125 (≈ 0.112 µM)	0.125 (≈ 0.112 µM)	1 (≈ 0.898 µM)	2 (≈ 1.8 µM)	1 (≈ 0.898 µM)	0.5 (≈ 0.449 µM)	0.25 (≈ 0.225 µM)	0.5 (≈ 0.449 µM)	0.5 (≈ 0.449 µM)	0.5 (≈ 0.449 µM)	>32	−2.26	
CC[C@@H]1NC(=O)[C@@H](CC(C)C)NC(=O)[C@H](CCN)NC(=O)[C@@H](NC(=O)[C@H](CN)NC(=O)[C@@H](NC(=O)[C@H](CCN)NC(=O)c2ccc(Cl)cc2)[C@@H](C)O)CCNC(=O)[C@H]([C@@H](C)O)NC(=O)[C@H](CCN)NC(=O)[C@H](CCN)NC1=O [Compound 94] ({Benzoyl(4-Cl)}-[Dab]T[Dap][Dab][Dab][dL][Abu][Dab][Dab]T; lactam 4-C)	−1.26	0.25 (≈ 0.222 µM)	0.25 (≈ 0.222 µM)	0.5 (≈ 0.444 µM)	1 (≈ 0.888 µM)	0.5 (≈ 0.444 µM)	1 (≈ 0.888 µM)	0.25 (≈ 0.222 µM)	0.25 (≈ 0.222 µM)	0.5 (≈ 0.444 µM)	0.5 (≈ 0.444 µM)	0.5 (≈ 0.444 µM)	2 (≈ 1.78 µM)	−3.23	
CCCCCCCCC(=O)N[C@@H](CCN)C(=O)N[C@H](C(=O)N[C@@H](CN)C(=O)N[C@H]1CCNC(=O)[C@H]([C@@H](C)O)NC(=O)[C@H](CCN)NC(=O)[C@H](CCN)NC(=O)[C@H](CO)NC(=O)[C@@H](Cc2ccccc2)NC(=O)[C@H](CCN)NC1=O)[C@@H](C)O [Compound 143] (Nonanoyl-[Dab]T[Dap][Dab][Dab][dF]S[Dab][Dab]T; lactam 4-C)					1 (≈ 0.86 µM)				0.25 (≈ 0.215 µM)	0.5 (≈ 0.43 µM)				−3.47	Minimum inhibitory concentration (MIC), Ec FADDI-EC001 (Enterobacter cloacae): 1 µg/mL (≈ 0.86 µM); Minimum inhibitory concentration (MIC), Ec FADDI-EC003 (Enterobacter cloacae): 0.5 µg/mL (≈ 0.43 µM); Minimum inhibitory concentration (MIC), Ec FADDI-EC006 (Enterobacter cloacae): 0.5 µg/mL (≈ 0.43 µM); Minimum inhibitory concentration (MIC), Ab ATCC 17978 (Acinetobacter baumannii): 1 µg/mL (≈ 0.86 µM); Minimum inhibitory concentration (MIC), Ab ATCC 19606 (Acinetobacter baumannii): 1 µg/mL (≈ 0.86 µM); Minimum inhibitory concentration (MIC), Ab FADDI-AB034 (Acinetobacter baumannii): 0.5 µg/mL (≈ 0.43 µM); Minimum inhibitory concentration (MIC), Pa ATCC 27853 (Pseudomonas aeruginosa): 0.5 µg/mL (≈ 0.43 µM); Minimum inhibitory concentration (MIC), Pa FADDI-PA022 (Pseudomonas aeruginosa): 0.5 µg/mL (≈ 0.43 µM); Minimum inhibitory concentration (MIC), Pa FADDI-PA025 (Pseudomonas aeruginosa): 16 µg/mL (≈ 13.8 µM)
CC(C)C[C@H]1NC(=O)[C@H](CCN)NC(=O)[C@@H](NC(=O)[C@H](CN)NC(=O)[C@@H](NC(=O)[C@H](CCN)NC(=O)c2ccc(-c3ccc(Cl)cc3)cc2)[C@@H](C)O)CCNC(=O)[C@H]([C@@H](C)O)NC(=O)[C@H](CCN)NC(=O)[C@H](CCN)NC(=O)[C@H](C)NC1=O [Compound 144] ({Benzoyl(4-(4-Cl-Ph))}-[Dab]T[Dap][Dab][Dab][dL]A[Dab][Dab]T; lactam 4-C)														−2.98	Minimum inhibitory concentration (MIC), Ec FADDI-EC001 (Enterobacter cloacae; Enterobacter cloacae FADDI-EC001, broth microdilution in CAMHB, TFA salt): 2 µg/mL; Minimum inhibitory concentration (MIC), Ec FADDI-EC003 (Enterobacter cloacae; Enterobacter cloacae FADDI-EC003, broth microdilution in CAMHB, TFA salt): 1 µg/mL; Minimum inhibitory concentration (MIC), Ec FADDI-EC006 (Enterobacter cloacae; Enterobacter cloacae FADDI-EC006, broth microdilution in CAMHB, TFA salt): 1 µg/mL; MIC (Acinetobacter baumannii; A. baumannii ATCC 19606): 1 µg/mL (≈ 0.842 µM); Minimum inhibitory concentration (MIC), Ab ATCC 17978 (Acinetobacter baumannii; Acinetobacter baumannii ATCC 17978, broth microdilution in CAMHB, TFA salt): 1 µg/mL; Minimum inhibitory concentration (MIC), Ab ATCC 19606 (Acinetobacter baumannii; Acinetobacter baumannii ATCC 19606, broth microdilution in CAMHB, TFA salt): 1 µg/mL; Minimum inhibitory concentration (MIC), Ab FADDI-AB034 (Acinetobacter baumannii; Acinetobacter baumannii FADDI-AB034, broth microdilution in CAMHB, TFA salt): 0.5 µg/mL; MIC (Klebsiella pneumoniae; K. pneumoniae FADDI-KP032): 1 µg/mL (≈ 0.842 µM); MIC (Pseudomonas aeruginosa; P. aeruginosa ATCC 27853): 1 µg/mL (≈ 0.842 µM); Minimum inhibitory concentration (MIC), Pa ATCC 27853 (Pseudomonas aeruginosa; Pseudomonas aeruginosa ATCC 27853, broth microdilution in CAMHB, TFA salt): 1 µg/mL; Minimum inhibitory concentration (MIC), Pa FADDI-PA022 (Pseudomonas aeruginosa; Pseudomonas aeruginosa FADDI-PA022, broth microdilution in CAMHB, TFA salt): 2 µg/mL; Minimum inhibitory concentration (MIC), Pa FADDI-PA025 (Pseudomonas aeruginosa; Pseudomonas aeruginosa FADDI-PA025, broth microdilution in CAMHB, TFA salt): 1 µg/mL
CC(C)C[C@H]1NC(=O)[C@H](CCN)NC(=O)[C@@H](NC(=O)[C@H](CN)NC(=O)[C@@H](NC(=O)[C@H](CCN)NC(=O)CCCc2ccccc2)[C@@H](C)O)CCNC(=O)[C@H]([C@@H](C)O)NC(=O)[C@H](CCN)NC(=O)[C@H](CCN)NC(=O)[C@H](C)NC1=O [Compound 146] ({Butanoyl(4-Ph)}-[Dab]T[Dap][Dab][Dab][dL]A[Dab][Dab]T; lactam 4-C)					4 (≈ 3.57 µM)				0.5 (≈ 0.447 µM)	0.5 (≈ 0.447 µM)				−3.63	Minimum inhibitory concentration (MIC), Ec FADDI-EC001 (Enterobacter cloacae): 0.5 µg/mL (≈ 0.447 µM); Minimum inhibitory concentration (MIC), Ec FADDI-EC003 (Enterobacter cloacae): 0.25 µg/mL (≈ 0.223 µM); Minimum inhibitory concentration (MIC), Ec FADDI-EC006 (Enterobacter cloacae): 0.5 µg/mL (≈ 0.447 µM); Minimum inhibitory concentration (MIC), Ab ATCC 17978 (Acinetobacter baumannii): 1 µg/mL (≈ 0.893 µM); Minimum inhibitory concentration (MIC), Ab ATCC 19606 (Acinetobacter baumannii): 4 µg/mL (≈ 3.57 µM); Minimum inhibitory concentration (MIC), Ab FADDI-AB034 (Acinetobacter baumannii): 2 µg/mL (≈ 1.79 µM); Minimum inhibitory concentration (MIC), Pa ATCC 27853 (Pseudomonas aeruginosa): 0.5 µg/mL (≈ 0.447 µM); Minimum inhibitory concentration (MIC), Pa FADDI-PA022 (Pseudomonas aeruginosa): 0.5 µg/mL (≈ 0.447 µM); Minimum inhibitory concentration (MIC), Pa FADDI-PA025 (Pseudomonas aeruginosa): >32 µg/mL
